The values below come from PMC5249140, “Delineating Substrate Diversity of Disparate Short-Chain Dehydrogenase Reductase from Debaryomyces hansenii” (PLoS ONE, 2017).

Data set [1] concerns the target T1, DHK (SDR from Debaryomyces hansenii) (Debaryomyces hansenii, UniProt Q6BTD7).
T1 construct: gene DEHA2D01496g; full-length codon-optimised synthetic gene in pET28a, N-terminal His6 tag kept, E. coli BL21(DE3), ~39 kDa, monomer
Description: differential scanning fluorimetry, SYPRO orange. Type of data set: binding. As to conditions: 50 μM ligand, 2.5 μM enzyme; apo Tm 28.04°C. Background: Differential scanning fluorimetry follows unfolding on heating by fluorescence.

The target in data set [2] is T2, FabG (β-keto ACP reductase) (Synechococcus elongatus, UniProt Q31QF3).
T2 construct: gene Synpcc7942_0684; codon-optimised synthetic gene in pET28a, N-terminal His6 tag, E. coli BL21(DE3), ~29 kDa
T2 sequence (Q31QF3 entry or part of it): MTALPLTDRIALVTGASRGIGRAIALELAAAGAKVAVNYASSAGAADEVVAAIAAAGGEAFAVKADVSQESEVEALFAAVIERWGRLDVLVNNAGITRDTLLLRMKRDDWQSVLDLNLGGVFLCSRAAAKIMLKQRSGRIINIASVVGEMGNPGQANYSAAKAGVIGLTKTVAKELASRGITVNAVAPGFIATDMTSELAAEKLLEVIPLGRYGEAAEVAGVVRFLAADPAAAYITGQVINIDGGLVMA
Description: differential scanning fluorimetry, SYPRO orange. Type of data set: binding. The note with it: 2.5 μM enzyme; apo Tm 58°C, with NADPH 65°C.

Substrate in data set [3]: CCOC(=O)CC(=O)CCl
Nature of the data set: purified protein. The data set is classed as biochemical, Debaryomyces hansenii. The note with it: 300 μM NADPH, 100 mM sodium phosphate, 100 mM NaCl, pH 7.4, 25°C.

Substrate in data set [4]: NC(=O)C1=CN([C@@H]2O[C@H](COP(=O)(O)OP(=O)(O)OC[C@H]3O[C@@H](n4cnc5c(N)ncnc54)[C@H](OP(=O)(O)O)[C@@H]3O)[C@@H](O)[C@H]2O)C=CC1
Description: purified protein. The data set is classed as biochemical, Debaryomyces hansenii. The note with it: 2 mM ethyl 4-chloro acetoacetate, 100 mM sodium phosphate, 100 mM NaCl, pH 7.4, 25°C, varied: cofactor.

The ΔTm is the change in melting temperature against a reference sample. As a reminder, the Km is the substrate concentration at which the rate is half of its maximum.

With `NC(=O)C1=CN([C@@H]2O[C@H](COP(=O)(O)OP(=O)(O)OC[C@H]3O[C@@H](n4cnc5c(N)ncnc54)[C@H](O)[C@@H]3O)[C@@H](O)[C@H]2O)C=CC1` [NADH], the ΔTm in data set [1] turned out to be 1.82 °C. As to `NC(=O)C1=CN([C@@H]2O[C@H](COP(=O)(O)OP(=O)(O)OC[C@H]3O[C@@H](n4cnc5c(N)ncnc54)[C@H](OP(=O)(O)O)[C@@H]3O)[C@@H](O)[C@H]2O)C=CC1` [NADPH], the ΔTm in data set [1] came to 6.05 °C. In data set [2], the Tm shift turned out to be 7 °C.

B1: DHK (SDR from Debaryomyces hansenii) (Debaryomyces hansenii CBS767) (protein)
chain: MTRTVFVSGASGFIAQNIVKLLIEKGYNVIGTVRTAEKGENLKKCLASEKFTYEIVPDISVEGAFDKVLEKHSEINVLLHTASPFFYDTTDPENDLVLPAINGTKNILKAVKQYGAQIERVVITSSDAAIYSADDEQNSDLSFNESNWNSISYEDAIKDPIAAYYGAKTFAEKAAWDFVKENNSNFKLTAVNPVYVFGPQAFASEVKGKLNTSNELINTLIKLGPSDLFDNDKGGFIDVRDVAKAHVMAFESEDTINKRLYLTNGHFSTQMMLDIVNKNFPELKGKIPIGNPGTGSQDISTLAKMSNDATRQILNFDFNSLEKVVADTVAQILDARKRTL
notes: full-length codon-optimised synthetic gene in pET28a, N-terminal His6 tag kept, E. coli BL21(DE3), ~39 kDa, monomer
For the molecule B1, the Km in data set [3] turned out to be 616.1 µM; in data set [4] it was 51.09 µM.
